In patent US9884816B2, “Sulforaphane-derived compounds, production method thereof and the medical, food and cosmetic use of same” (Consejo Superior De Investigaciones Científicas (CSIC), priority 2012, dated 2018):

Experiments:
[1] = tested on: A-549 (human lung adenocarcinoma); test: Cytotoxicity curve, A-549 cell line; type: cell-based; settings: mean ± SEM, at least 3 independent experiments
Protocol: (§1) FIG. 5. Curve of cytotoxicity of the compounds 15S, and 15R, at four different concentrations ([…]) in comparison with Sigma-Aldrich® sulphoraphane at five different concentrations ([…]) for the cell lines A-549 (human lung adenocarcinoma) and MRC-5 (fetal lung fibroblasts), showing IC50 for all the products in each of the cell lines used in the test, expressed as mean±standard error (SEM) of all the tests conducted. Each diagram represents at least 3 independent experiments and both within them and for each value of IC50, the result of statistical analysis is indicated for the t-test with the p-value. The t-test indicates whether two values have a significant difference from the statistical standpoint. A p-value above 0.05 is not regarded as statistically significant and is not represented by any symbol, a p-value below 0.05 indicates statistical significance and is indicated with an asterisk (*), and then if p is below 0.01 it is indicated with two asterisks, and with three if it is below 0.001.

[2] = tested on: MRC-5 (fetal lung fibroblasts); test: Cytotoxicity curve, MRC-5 cell line; type: cell-based; settings: mean ± SEM, at least 3 independent experiments
Protocol: as §1

Molecule | IC50 [1] [µM] | IC50 [2] [µM]
C[S@@+]([O-])CCCCN=C=S (racemic) [SF, (Rs)-1-isothiocyanato-4-(methylsulphinyl)-butane] | 19.6 ± 2.27 | 46.6 ± 2.19
C[S@+]([O-])CCOCCOCCN=C=S [SF 15Ss, (S)-(+)-8-Isothiocyanato-3,6-dioxaoctanylmethyl sulphoxide] | 22.7 ± 0.69 | 58.3 ± 6.54
C[S+]([O-])CCCCN=C=S (centres unmarked) [SF Sigma ®] | 16.5 ± 3.05 | 30.5 ± 2.02
(R)-(−)-8-Isocyanato-3,6-dioxaoctanylmethyl sulphoxide [SF 15Rs] | 29.4 ± 3.89 | 67.3 ± 6.25
